Results on 46 molecules are retold here after patent US9365556B2, “3,5-diaminopyrazole kinase inhibitors” (Axikin Pharmaceuticals, Inc., priority 2012, dated 2016).

For series [1], the target named is T1, kinase domain protein of RC kinase (Homo sapiens, UniProt Q56UN5).
T1 sequence (Q56UN5 1061-1324 limits assumed): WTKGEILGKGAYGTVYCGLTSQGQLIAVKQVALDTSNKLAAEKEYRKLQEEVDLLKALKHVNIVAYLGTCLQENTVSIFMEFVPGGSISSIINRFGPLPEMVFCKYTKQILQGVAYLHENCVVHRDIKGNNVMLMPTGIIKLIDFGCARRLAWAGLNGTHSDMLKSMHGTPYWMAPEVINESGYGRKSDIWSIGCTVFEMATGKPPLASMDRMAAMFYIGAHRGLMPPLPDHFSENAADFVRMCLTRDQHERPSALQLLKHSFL
Nature of the series: Enzymatic assay for kinase inhibitory activity (Crebtide substrate, LANCE read-out). The series is classed as biochemical. Particulars: compound at 1 μM. The procedure, abridged: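 Compound tested at 1 μM final in HEPES/MgCl2/DTT buffer with 50 nM Crebtide and kinase domain at 1 μM ATP; full-length kinase at 3 μM ATP after 45 min preincubation. Reaction 45 min at room temperature, stopped with EDTA, read by LANCE TR-FRET (665/615 nm). Activity binned as % inhibition at 1 μM.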
A general note: TR-FRET usually uses a lanthanide donor and a delayed reading to cut background.

Turning to `N#Cc1c(Nc2cccc(Cl)c2)n[nH]c1/N=C/c1ccc(C(F)(F)F)cc1` [Compound A15, 3-((3-chlorophenyl)amino)-5-((4-(trifluoromethyl)benzylidene)amino)-1H-pyrazole-4-carbonitrile], the melting point was 279 to 282 °C. Also, in series [1], the inhibition at 1 µM lay within 5 to 20%.
For `N#Cc1c(Nc2ccccc2)n[nH]c1/N=C/c1ccc([N+](=O)[O-])cc1` [Compound A19] the same measures were 290 to 294 °C and 5 to 20%.
`N#Cc1c(Nc2cccc(Cl)c2)n[nH]c1/N=C/c1ccc(O)cc1` [Compound A20]: the melting point is 242 to 245 °C. Further, the inhibition at 1 µM in series [1] was no more than 5%.
Turning to `COc1cc(/C=N/c2[nH]nc(Nc3ccccc3)c2C#N)ccc1O` [Compound A21, 5-((4-hydroxy-3-methoxybenzylidene)amino)-3-(phenylamino)-1H-pyrazole-4-carbonitrile], the melting point is 208 to 214 °C. Also, the inhibition at 1 µM in series [1] fell in the range of 5 to 20%.
In the same order, the values of `N#Cc1c(Nc2ccccc2)n[nH]c1/N=C/c1ccc(O)cc1` [Compound A22] are 241 to 245 °C and no more than 5%.
In turn, `COc1ccccc1/C=N/c1[nH]nc(Nc2cccc(Cl)c2)c1C#N` [Compound A23] came in with a melting point of 239 to 241 °C. The inhibition at 1 µM in series [1] is 20 to 50%.
The molecule `COc1ccccc1/C=N/c1[nH]nc(Nc2ccccc2)c1C#N` [Compound A26] had a melting point of 202 to 206 °C. Also, the inhibition at 1 µM in series [1] lay within 5 to 20%.
Regarding `N#Cc1c(Nc2cccc(Cl)c2)n[nH]c1/N=C/c1cc(F)cc2c1OCOC2` [Compound A29, 3-((3-chlorophenyl)amino)-5-(((6-fluoro-4H-benzo[d][1,3]dioxin-8-yl)methylene)amino)-1H-pyrazole-4-carbonitrile], the melting point was 248 to 251 °C. Besides, in series [1], the inhibition at 1 µM lay in the range of 5 to 20%.
As for `N#Cc1c(Nc2ccccc2)n[nH]c1/N=C/c1cc(F)cc2c1OCOC2` [Compound A30], the melting point was in the range of 247 to 251 °C. Further, the inhibition at 1 µM in series [1] is 5 to 20%.
With `N#Cc1c(Nc2ccc(Cl)cc2)n[nH]c1/N=C/c1ccc(O)cc1` [Compound A32], the melting point was in the range of 286 to 288 °C. The inhibition at 1 µM in series [1] is 5 to 20%.
With `COc1ccc(/C=N/c2[nH]nc(Nc3ccc(Cl)cc3)c2C#N)cc1` [Compound A33], the melting point lay in the range of 290 to 291 °C. For the same molecule, in series [1], the inhibition at 1 µM is no more than 5%.
For the molecule `N#Cc1c(Nc2ccc(Cl)cc2)n[nH]c1/N=C/c1ccc(Cl)cc1` [Compound A35], the melting point was 296 to 300 °C. Further, the inhibition at 1 µM in series [1] is no more than 5%.
`COc1ccccc1/C=N/c1[nH]nc(Nc2ccc(Cl)cc2)c1C#N` [Compound A38] showed a melting point of 262 to 265 °C. Also, the inhibition at 1 µM in series [1] was no more than 5%.
In the case of `N#Cc1c(Nc2ccc(Cl)cc2)n[nH]c1/N=C/c1cccc2ccccc12` [Compound A40], the melting point fell in the range of 289 to 292 °C. Moreover, the inhibition at 1 µM in series [1] was no more than 5%.
On to `COc1ccc(Nc2n[nH]c(/N=C/c3ccc(O)c([N+](=O)[O-])c3)c2C#N)cc1` [Compound A42], for which the melting point lay in the range of 274 to 275 °C. The inhibition at 1 µM in series [1] was no more than 5%.
`COc1ccc(/C=N/c2[nH]nc(Nc3ccc(OC)cc3)c2C#N)cc1` [Compound A43] returned a melting point of 246 to 250 °C. In addition, in series [1], the inhibition at 1 µM is no more than 5%.
As to `COc1ccc(Nc2n[nH]c(/N=C/c3ccc([N+](=O)[O-])cc3)c2C#N)cc1` [Compound A46], the melting point lay within 242 to 248 °C. Further, the inhibition at 1 µM in series [1] was no more than 5%.
`N#Cc1c(NC2CC2)n[nH]c1/N=C/c1ccc(O)cc1` [Compound A48, 3-(cyclopropylamino)-5-((4-hydroxybenzylidene)amino)-1H-pyrazole-4-carbonitrile] had a melting point of 220 to 228 °C. For the same molecule, the inhibition at 1 µM in series [1] is no more than 5%.
Take `CC(C)(C)c1ccc(Nc2n[nH]c(/N=C/c3ccc(Cl)cc3)c2C#N)cc1` [Compound A53]: the melting point fell in the range of 288 to 290 °C. For the same molecule, the inhibition at 1 µM in series [1] lay within 5 to 20%.
Take `COc1ccc(Nc2n[nH]c(/N=C/c3ccc(O)cc3)c2C#N)cc1` [Compound A54]: the melting point lay within 193 to 197 °C. For the same molecule, the inhibition at 1 µM in series [1] was 5 to 20%.
As to `COc1cc(/C=N/c2[nH]nc(Nc3cccc(Cl)c3)c2C#N)ccc1OCc1cnc(Cl)s1` [Compound A60], the melting point was 210 to 220 °C. The inhibition at 1 µM in series [1] was in the range of 5 to 20%.
The molecule `N#Cc1c(Nc2cccc(Cl)c2)n[nH]c1/N=C/c1ccc(Oc2ccc(C(F)(F)F)cn2)cc1` [Compound A61] gave a melting point of 264 to 268 °C. The inhibition at 1 µM in series [1] is 5 to 20%.
Consider `Cn1nc(CSc2ccccc2)c(/C=N/c2[nH]nc(Nc3cccc(Cl)c3)c2C#N)c1Cl` [Compound A62], for which the melting point lay in the range of 194 to 202 °C. The inhibition at 1 µM in series [1] was 5 to 20%.
Turning to `N#Cc1c(Nc2cccc(Cl)c2)n[nH]c1/N=C/C1CCCN1C(=O)OCc1ccccc1` (centres unmarked) [Compound A63], the melting point lay within 65 to 72 °C. Moreover, in series [1], the inhibition at 1 µM was 5 to 20%.
`N#Cc1c(Nc2cccc(Cl)c2)n[nH]c1/N=C/c1cccn1S(=O)(=O)c1ccccc1` [Compound A64] displayed a melting point of 217 to 225 °C. For the same molecule, in series [1], the inhibition at 1 µM was in the range of 20 to 50%.
With `N#Cc1c(Nc2cccc(Cl)c2)n[nH]c1/N=C/c1ccc(S(F)(F)(F)(F)F)cc1` [Compound A65, 3-((3-chlorophenyl)amino)-5-((4-(pentafluorolthio)benzylidene)amino)-1H-pyrazole-4-carbonitrile], the melting point fell in the range of 200 to 216 °C. The inhibition at 1 µM in series [1] was 5 to 20%.
In turn, `N#Cc1c(Nc2cccc(Cl)c2)n[nH]c1/N=C/c1ccc(-n2cnc3ccccc32)cc1` [Compound A67] registered a melting point of 308 to 310 °C. For the same molecule, in series [1], the inhibition at 1 µM lay in the range of 20 to 50%.
Take `N#Cc1c(Nc2cccc(Cl)c2)n[nH]c1/N=C/c1c[nH]c2c(F)c(F)c(F)c(F)c12` [Compound A68]: the melting point is 343 to 347 °C. For the same molecule, the inhibition at 1 µM in series [1] was 5 to 20%.
In the same order, the values of `COc1ccc(C(F)(F)F)cc1/C=N/c1[nH]nc(Nc2cccc(Cl)c2)c1C#N` [Compound A75] are 189 to 197 °C and no more than 5%.
With `N#Cc1c(Nc2cccc(Cl)c2)n[nH]c1/N=C/c1cccc(Oc2ncccn2)c1` [Compound A76], the melting point is 234 to 239 °C. For the same molecule, the inhibition at 1 µM in series [1] was 5 to 20%.
The molecule `N#Cc1c(Nc2cccc(Cl)c2)n[nH]c1/N=C/c1ccc(N2CCOCC2)nc1` [Compound A79] yielded a melting point of 273 to 279 °C. The inhibition at 1 µM in series [1] is no more than 5%.
`CS(=O)(=O)N1CCC(/C=N/c2[nH]nc(Nc3cccc(Cl)c3)c2C#N)CC1` [Compound A80] gave a melting point of 102 to 105 °C. Also, the inhibition at 1 µM in series [1] is no more than 5%.
For `N#Cc1c(Nc2cccc(Cl)c2)n[nH]c1/N=C/c1ccccc1-c1cccs1` [Compound A81] the same measures were 75 to 80 °C and 5 to 20%.
In turn, `N#Cc1c(Nc2cccc(Cl)c2)n[nH]c1/N=C/c1ccc(OC(F)F)c(O)c1` [Compound A82] displayed a melting point of 164 to 176 °C. In addition, the inhibition at 1 µM in series [1] is no more than 5%.
In turn, `N#Cc1c(Nc2cccc(Cl)c2)n[nH]c1/N=C/c1ccc(-c2ccccn2)cc1` [Compound A84] came in with a melting point of 326 to 329 °C. Further, the inhibition at 1 µM in series [1] is no more than 5%.
As for `N#Cc1c(Nc2cccc(Cl)c2)n[nH]c1/N=C/c1cncc(N2CCCC2)c1` [Compound A86], the melting point lay in the range of 305 to 309 °C. Also, in series [1], the inhibition at 1 µM was no more than 5%.
In turn, `N#Cc1c(Nc2cccc(Cl)c2)n[nH]c1/N=C/c1ccc(-n2cncn2)cc1` [Compound A87] had a melting point of 284 to 288 °C. Moreover, the inhibition at 1 µM in series [1] was no more than 5%.
Take `N#Cc1c(Nc2cccc(Cl)c2)n[nH]c1/N=C/c1ccc(OCCO)cc1` [Compound A88]: the melting point is 229 to 232 °C. In series [1], the inhibition at 1 µM was 5 to 20%.
For `N#Cc1c(Nc2cccc(Cl)c2)n[nH]c1/N=C/c1ccc2snnc2c1` [Compound A90] the same measures were 276 to 281 °C and no more than 5%.
In the case of `N#Cc1c(Nc2cccc(Cl)c2)n[nH]c1/N=C/c1ccc(Cl)cc1O` [Compound A91], the melting point lay within 283 to 284 °C. For the same molecule, the inhibition at 1 µM in series [1] is no more than 5%.
Regarding `COc1ccc(/C=N/c2[nH]nc(Nc3cccc(Cl)c3)c2C#N)cc1F` [Compound A93], the melting point is 217 to 220 °C. Further, the inhibition at 1 µM in series [1] fell in the range of 20 to 50%.
Turning to `N#Cc1c(Nc2cccc(Cl)c2)n[nH]c1/N=C/c1ccc(F)cc1O` [Compound A98], the melting point lay in the range of 232 to 238 °C. In addition, in series [1], the inhibition at 1 µM was in the range of 20 to 50%.
For `Cc1cc(F)ccc1/C=N/c1[nH]nc(Nc2cccc(Cl)c2)c1C#N` [Compound A99], the melting point was in the range of 253 to 257 °C. Moreover, the inhibition at 1 µM in series [1] is 5 to 20%.
Consider `COc1ccc(/C=N/c2[nH]nc(Nc3cccc(Cl)c3)c2C#N)cn1` [Compound A100], for which the melting point was in the range of 286 to 291 °C. Further, in series [1], the inhibition at 1 µM is 5 to 20%.
For `Cc1ccc(/C=N/c2[nH]nc(Nc3cccc(Cl)c3)c2C#N)c(O)c1` [Compound A101] the same measures were 293 to 296 °C and no more than 5%.
`N#Cc1ccc(/C=N/c2[nH]nc(Nc3cccc(Cl)c3)c2C#N)cc1` [Compound A102] gave a melting point of 266 to 274 °C. Also, the inhibition at 1 µM in series [1] fell in the range of 5 to 20%.

Usually inhibition stands for the change of the read-out against control, counted positive when it falls. In general, melting point refers to the temperature, or range, at which the solid turns liquid.
